Data as given in patent US20110015080A1, “Solution-based methods for RNA expression profiling” (MASSACHUSETTS INSTITUTE OF TECHNOLOGY, priority 2005, published 2011).
Several values for one entry are separate records, joined by “and”; a condition that tells them apart may be missing. Identical values can stand only once.

Test system: HL60 (human promyelocytic leukemia) cells
Experiment: LMA-FlexMAP bead-based gene expression signature analysis of total RNA from HL60 cells treated with tretinoin or DMSO (ninety transcripts); as to NM 000884 LUA#81 FlexMAP signal: test concentration or dose not given here; as to NM 001469 LUA#79 FlexMAP signal: test concentration or dose not given here

SMILES: CC1=C(/C=C/C(C)=C/C=C/C(C)=C/C(=O)O)C(C)(C)CCC1 [tretinoin, all-trans-retinoic acid]
- ACTB LUA#91 FlexMAP signal (Experiment 1, tretinoin-treated HL60, transcript ACTB, replicate columns): 2313 and 2609 and 1929 and 2483 and 818 and 2425.5 and 2563 and 1173 and 2347 and 2296.5
- GAPDH_3 LUA#95 FlexMAP signal (Experiment 1, tretinoin-treated HL60, transcript GAPDH_3, replicate columns): 2580 and 2982 and 2428 and 2979 and 1102.5 and 2911 and 2912 and 1645 and 2823 and 2559
- GAPDH_5 LUA#93 FlexMAP signal (Experiment 1, tretinoin-treated HL60, transcript GAPDH_5, replicate columns): 1299 and 1629 and 998.5 and 1419 and 378.5 and 1433 and 1505.5 and 632 and 1469 and 1347
- GAPDH_M LUA#94 FlexMAP signal (Experiment 1, tretinoin-treated HL60, transcript GAPDH_M, replicate columns): 1360.5 and 1575 and 1134 and 1511.5 and 460 and 1520 and 1502 and 698.5 and 1462 and 1334
- NM_000147 LUA#29 FlexMAP signal (Experiment 1, tretinoin-treated HL60, transcript NM_000147, replicate columns): 764 and 894 and 573 and 861 and 195.5 and 822.5 and 850 and 302 and 783 and 763
- NM_000211 LUA#39 FlexMAP signal (Experiment 1, tretinoin-treated HL60, transcript NM_000211, replicate columns): 1294.5 and 1488 and 1125 and 1420 and 454.5 and 1349 and 1366.5 and 682 and 1361 and 1315
- NM_000250 LUA#87 FlexMAP signal (Experiment 1, tretinoin-treated HL60, transcript NM_000250, replicate columns): 164 and 198 and 194 and 74 and 177 and 187 and 95.5 and 173 and 166
- NM_000414 LUA#22 FlexMAP signal (Experiment 1, tretinoin-treated HL60, transcript NM_000414, replicate columns): 372.5 and 470.5 and 270 and 442 and 100 and 408.5 and 415 and 145 and 402.5 and 373
- NM_000433 LUA#28 FlexMAP signal (Experiment 1, tretinoin-treated HL60, transcript NM_000433, replicate columns): 536.5 and 647 and 442.5 and 640 and 144 and 605 and 622 and 228.5 and 564 and 532
- NM_000584 LUA#30 FlexMAP signal (Experiment 1, tretinoin-treated HL60, transcript NM_000584, replicate columns): 1765 and 2115 and 1464 and 1938.5 and 476 and 1981.5 and 1945 and 799.5 and 1938 and 1717
- NM_000884 LUA#81 FlexMAP signal (Experiment 1, tretinoin-treated HL60, transcript NM_000884, replicate columns): 799 (2×) and 946 and 676 and 871.5 and 250 and 871 and 865 and 389 and 830.5
- NM_001034 LUA#67 FlexMAP signal (Experiment 1, tretinoin-treated HL60, transcript NM_001034, replicate columns): 191 and 243 and 157 and 225 and 73 and 209 and 212.5 and 92 and 219 and 185
- NM_001101 LUA#34 FlexMAP signal (Experiment 1, tretinoin-treated HL60, transcript NM_001101, replicate columns): 2722 and 3119.5 and 2773 and 2969.5 and 1490 and 2968.5 and 2890 and 1977 and 2893.5 and 2694
- NM_001469 LUA#79 FlexMAP signal (Experiment 1, tretinoin-treated HL60, transcript NM_001469, replicate columns): 1076 and 1221 and 809 and 1179 (2×) and 284 and 1191 and 463 and 1140.5 and 1077
- NM_001498 LUA#18 FlexMAP signal (Experiment 1, tretinoin-treated HL60, transcript NM_001498, replicate columns): 361 and 424 and 279 and 402 and 96 and 374 and 412 and 140 and 360 and 335.5
- NM_001684 LUA#23 FlexMAP signal (Experiment 1, tretinoin-treated HL60, transcript NM_001684, replicate columns): 69 and 68 and 54 and 66.5 and 41 and 65 (2×) and 43 and 61 and 63
- NM_001948 LUA#84 FlexMAP signal (Experiment 1, tretinoin-treated HL60, transcript NM_001948, replicate columns): 58 and 75 and 61 and 73 and 47 and 63 and 71 and 51 and 76 and 66
- NM_002166 LUA#25 FlexMAP signal (Experiment 1, tretinoin-treated HL60, transcript NM_002166, replicate columns): 154 and 180 and 124.5 and 159.5 and 61 and 168 and 159 and 79.5 and 156.5 and 152
- NM_002467 LUA#90 FlexMAP signal (Experiment 1, tretinoin-treated HL60, transcript NM_002467, replicate columns): 1030 and 801 and 702 and 736 and 256 and 792.5 and 842.5 and 399 and 957 and 976
- NM_002468 LUA#40 FlexMAP signal (Experiment 1, tretinoin-treated HL60, transcript NM_002468, replicate columns): 418 and 492 and 325 and 448.5 and 121 and 496.5 and 473 and 174.5 and 426.5 and 399.5
- NM_002539 LUA#74 FlexMAP signal (Experiment 1, tretinoin-treated HL60, transcript NM_002539, replicate columns): 276 and 362 and 231 and 326 and 85 and 313 and 314.5 and 131 and 300 and 281.5
- NM_002624 LUA#36 FlexMAP signal (Experiment 1, tretinoin-treated HL60, transcript NM_002624, replicate columns): 1288 and 1492.5 and 1267 and 1418 and 576 and 1447 and 1402 and 820 and 1224.5
- NM_002664 LUA#38 FlexMAP signal (Experiment 1, tretinoin-treated HL60, transcript NM_002664, replicate columns): 2325 and 2761 and 2157 and 2552 and 892 and 2527 and 2504 and 1337 and 2394 and 2330
- NM_002970 LUA#42 FlexMAP signal (Experiment 1, tretinoin-treated HL60, transcript NM_002970, replicate columns): 1455 and 1683.5 and 1181 and 1595 and 400 and 1478 and 1584 and 651 and 1503 and 1459
- NM_002982 LUA#45 FlexMAP signal (Experiment 1, tretinoin-treated HL60, transcript NM_002982, replicate columns): 3488 and 3786 and 3231 and 3797 and 1738 and 3852 and 3752 and 2466 and 3667 and 3451
- NM_003132 LUA#68 FlexMAP signal (Experiment 1, tretinoin-treated HL60, transcript NM_003132, replicate columns): 488 (2×) and 596 and 410 and 540 and 148 and 523 and 517 and 212 and 467.5
- NM_003172 LUA#19 FlexMAP signal (Experiment 1, tretinoin-treated HL60, transcript NM_003172, replicate columns): 243 and 276 and 208 and 286 and 86 and 264 and 257 and 121 and 260 and 235
- NM_003332 LUA#43 FlexMAP signal (Experiment 1, tretinoin-treated HL60, transcript NM_003332, replicate columns): 2387.5 and 2641 and 2219 and 2571.5 and 1100 and 2688.5 and 2573.5 and 1470 and 2528 and 2325
- NM_003581 LUA#62 FlexMAP signal (Experiment 1, tretinoin-treated HL60, transcript NM_003581, replicate columns): 53 and 57 and 147 and 80 and 50 (2×) and 65 and 52 and 43 and 42
- NM_003644 LUA#17 FlexMAP signal (Experiment 1, tretinoin-treated HL60, transcript NM_003644, replicate columns): 282 and 272 and 195.5 and 252 and 105 and 266.5 and 259 and 142 and 271.5 and 260
- NM_003752 LUA#82 FlexMAP signal (Experiment 1, tretinoin-treated HL60, transcript NM_003752, replicate columns): 130.5 and 145.5 and 114 and 144.5 and 71 and 128.5 and 142 and 94 and 137.5 and 124.5
- NM_003879 LUA#24 FlexMAP signal (Experiment 1, tretinoin-treated HL60, transcript NM_003879, replicate columns): 72.5 and 77.5 and 57 and 80 (2×) and 41 and 71 and 76 and 53 and 67
- NM_004079 LUA#21 FlexMAP signal (Experiment 1, tretinoin-treated HL60, transcript NM_004079, replicate columns): 113 and 129 and 93 and 124.5 and 55 and 127 and 122 and 70 and 125.5 and 99.5
- NM_004095 LUA#59 FlexMAP signal (Experiment 1, tretinoin-treated HL60, transcript NM_004095, replicate columns): 203 and 247 and 148 and 227 and 78 and 212 (2×) and 101 and 214.5 and 194.5
- NM_004106 LUA#44 FlexMAP signal (Experiment 1, tretinoin-treated HL60, transcript NM_004106, replicate columns): 1187 and 1452 and 994 and 1303 and 373 and 1308 and 1315 and 576.5 and 1274.5 and 1218
- NM_004134 LUA#76 FlexMAP signal (Experiment 1, tretinoin-treated HL60, transcript NM_004134, replicate columns): 278 and 318 and 207 and 277 and 83.5 and 292 and 306 and 111 and 280 and 266.5
- NM_004152 LUA#31 FlexMAP signal (Experiment 1, tretinoin-treated HL60, transcript NM_004152, replicate columns): 1944 and 2194 and 1662 and 2073 and 775 and 2127.5 and 2117 and 1110 and 2045 and 1823
- NM_004526 LUA#88 FlexMAP signal (Experiment 1, tretinoin-treated HL60, transcript NM_004526, replicate columns): 192 and 223 and 150 and 213 and 77 and 208 and 192.5 and 101 and 206.5 and 182.5
- NM_004602 LUA#32 FlexMAP signal (Experiment 1, tretinoin-treated HL60, transcript NM_004602, replicate columns): 215.5 and 258 and 182 and 239 and 88 and 232.5 and 227.5 and 113.5 and 224 and 212
- NM_004723 LUA#20 FlexMAP signal (Experiment 1, tretinoin-treated HL60, transcript NM_004723, replicate columns): 380 and 446 and 318 and 394 and 127 and 418.5 and 388.5 and 184 and 400 and 363.5
- NM_004741 LUA#89 FlexMAP signal (Experiment 1, tretinoin-treated HL60, transcript NM_004741, replicate columns): 205 and 208 and 168 and 215 and 100 and 204 and 198 and 116 and 214 and 204.5
- NM_004759 LUA#37 FlexMAP signal (Experiment 1, tretinoin-treated HL60, transcript NM_004759, replicate columns): 116 and 149.5 and 148 and 139.5 and 53 and 128 and 141 and 67 and 134 and 103
- NM_005008 LUA#77 FlexMAP signal (Experiment 1, tretinoin-treated HL60, transcript NM_005008, replicate columns): 343 and 416 and 307 and 392 and 123 and 401 and 382.5 and 167 and 372 and 338.5
- NM_005375 LUA#86 FlexMAP signal (Experiment 1, tretinoin-treated HL60, transcript NM_005375, replicate columns): 780.5 and 638 and 523 and 594.5 and 238 and 631.5 and 617 and 351 and 734 and 717
- NM_005566 LUA#85 FlexMAP signal (Experiment 1, tretinoin-treated HL60, transcript NM_005566, replicate columns): 540 and 632.5 and 583.5 and 642 and 150 and 607 and 596 and 219 and 577 and 523.5
- NM_005914 LUA#60 FlexMAP signal (Experiment 1, tretinoin-treated HL60, transcript NM_005914, replicate columns): 881.5 and 948 and 566.5 and 843 and 209 and 866 and 848.5 and 351 and 885 and 795
- NM_005915 LUA#72 FlexMAP signal (Experiment 1, tretinoin-treated HL60, transcript NM_005915, replicate columns): 44 (2×) and 59 and 39 and 54 and 34.5 and 56 and 41 and 51 and 47
